From ChEMBL document CHEMBL4507272 (2021)

Legend:
[1] = target: Serine/threonine-protein kinase tousled-like 2 (Homo sapiens) (UniProt Q86UE8); conditions: Compound concentration 1000.0 nM
[2] = target: Serine/threonine-protein kinase D1 (Homo sapiens) (UniProt Q15139); conditions: Compound concentration 1000.0 nM
[3] = target: Inhibitor of nuclear factor kappa-B kinase subunit beta (Homo sapiens) (UniProt O14920); conditions: Compound concentration 1000.0 nM
[4] = target: AP2-associated protein kinase 1 (Homo sapiens) (UniProt Q2M2I8); conditions: Compound concentration 1000.0 nM
[5] = target: Rho-associated protein kinase 2 (Homo sapiens) (UniProt O75116); conditions: Compound concentration 1000.0 nM
[6] = target: Mitogen-activated protein kinase 9 (Homo sapiens) (UniProt P45984); conditions: Compound concentration 1000.0 nM
[7] = target: 1-phosphatidylinositol 3-phosphate 5-kinase (Homo sapiens) (UniProt Q9Y2I7); conditions: Compound concentration 1000.0 nM
[8] = target: 3-phosphoinositide-dependent protein kinase 1 (Homo sapiens) (UniProt O15530); conditions: Compound concentration 1000.0 nM
3-phosphoinositide-dependent protein kinase 1 (Homo sapiens), sequence (O15530 whole entry): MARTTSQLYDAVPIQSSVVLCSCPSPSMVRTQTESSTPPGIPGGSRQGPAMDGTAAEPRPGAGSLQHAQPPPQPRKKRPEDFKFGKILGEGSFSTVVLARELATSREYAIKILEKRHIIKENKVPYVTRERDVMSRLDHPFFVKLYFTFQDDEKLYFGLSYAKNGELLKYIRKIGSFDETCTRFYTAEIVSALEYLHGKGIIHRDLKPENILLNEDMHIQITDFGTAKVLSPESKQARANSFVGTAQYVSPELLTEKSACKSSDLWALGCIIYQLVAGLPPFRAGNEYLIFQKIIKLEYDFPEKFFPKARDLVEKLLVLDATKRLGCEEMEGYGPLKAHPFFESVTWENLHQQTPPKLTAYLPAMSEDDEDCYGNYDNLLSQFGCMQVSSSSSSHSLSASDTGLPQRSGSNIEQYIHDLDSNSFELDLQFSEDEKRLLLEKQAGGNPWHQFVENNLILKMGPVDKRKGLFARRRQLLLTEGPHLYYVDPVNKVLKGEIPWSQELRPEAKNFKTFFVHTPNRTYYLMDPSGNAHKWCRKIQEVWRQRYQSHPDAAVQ

[9] = target: Ephrin type-A receptor 8 (Homo sapiens) (UniProt P29322); conditions: Compound concentration 1000.0 nM
[10] = target: Mitogen-activated protein kinase kinase kinase kinase 2 (Homo sapiens) (UniProt Q12851); conditions: Compound concentration 1000.0 nM
[11] = target: Phosphatidylinositol 4,5-bisphosphate 3-kinase catalytic subunit beta isoform (Homo sapiens) (UniProt P42338); conditions: Compound concentration 1000.0 nM
[12] = target: Cyclin-dependent kinase 2 homolog (Plasmodium falciparum (isolate 3D7)) (UniProt P61075); conditions: Compound concentration 1000.0 nM
[13] = target: Myosin light chain kinase (Homo sapiens) (UniProt Q32MK0); conditions: Compound concentration 1000.0 nM
[14] = target: Cyclin-dependent kinase-like 1 (Homo sapiens) (UniProt Q00532); conditions: Compound concentration 1000.0 nM
[15] = tested on: Epidermal growth factor receptor (Homo sapiens), P00533 [L858R]; conditions: Compound concentration 1000.0 nM
[16] = tested on: Fibroblast growth factor receptor 3 (Homo sapiens), P22607 [G697C]; conditions: Compound concentration 1000.0 nM
[17] = target: Homeodomain-interacting protein kinase 3 (Homo sapiens) (UniProt Q9H422); conditions: Compound concentration 1000.0 nM
[18] = target: Mitogen-activated protein kinase kinase kinase 13 (Homo sapiens) (UniProt O43283); conditions: Compound concentration 1000.0 nM
Mitogen-activated protein kinase kinase kinase 13 (Homo sapiens), sequence (O43283 whole entry): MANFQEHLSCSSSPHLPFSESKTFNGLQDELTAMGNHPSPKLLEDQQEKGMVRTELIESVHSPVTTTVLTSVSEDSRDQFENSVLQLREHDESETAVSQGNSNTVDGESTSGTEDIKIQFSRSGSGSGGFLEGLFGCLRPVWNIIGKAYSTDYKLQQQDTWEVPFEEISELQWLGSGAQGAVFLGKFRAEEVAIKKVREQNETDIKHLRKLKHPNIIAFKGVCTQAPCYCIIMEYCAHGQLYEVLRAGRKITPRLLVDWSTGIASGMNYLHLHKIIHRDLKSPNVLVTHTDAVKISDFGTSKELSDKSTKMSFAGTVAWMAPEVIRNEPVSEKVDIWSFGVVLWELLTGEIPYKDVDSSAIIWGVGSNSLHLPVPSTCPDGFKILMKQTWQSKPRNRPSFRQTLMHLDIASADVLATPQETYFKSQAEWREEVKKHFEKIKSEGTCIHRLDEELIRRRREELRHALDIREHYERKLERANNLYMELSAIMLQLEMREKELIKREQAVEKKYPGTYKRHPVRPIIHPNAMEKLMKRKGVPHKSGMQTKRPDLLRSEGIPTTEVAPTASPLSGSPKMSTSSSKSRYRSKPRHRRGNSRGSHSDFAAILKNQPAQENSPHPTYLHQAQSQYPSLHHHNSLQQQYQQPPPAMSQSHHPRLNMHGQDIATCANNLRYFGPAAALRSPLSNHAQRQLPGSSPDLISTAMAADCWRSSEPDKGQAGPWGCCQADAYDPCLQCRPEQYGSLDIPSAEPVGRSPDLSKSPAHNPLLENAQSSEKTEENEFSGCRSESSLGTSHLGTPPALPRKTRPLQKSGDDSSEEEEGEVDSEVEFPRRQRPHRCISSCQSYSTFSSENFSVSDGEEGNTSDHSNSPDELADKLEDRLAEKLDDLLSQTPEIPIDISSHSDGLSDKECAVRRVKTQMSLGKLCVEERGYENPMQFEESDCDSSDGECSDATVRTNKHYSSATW

[19] = target: Vascular endothelial growth factor receptor 1 (Homo sapiens) (UniProt P17948); conditions: Compound concentration 1000.0 nM
[20] = target: Calcium/calmodulin-dependent protein kinase kinase 1 (Homo sapiens) (UniProt Q8N5S9); conditions: Compound concentration 1000.0 nM
[21] = target: Myosin-IIIb (Homo sapiens) (UniProt Q8WXR4); conditions: Compound concentration 1000.0 nM
[22] = target: ALK tyrosine kinase receptor (Homo sapiens) (UniProt Q9UM73); conditions: Compound concentration 1000.0 nM
ALK tyrosine kinase receptor (Homo sapiens), sequence (Q9UM73 19-1620 limits assumed): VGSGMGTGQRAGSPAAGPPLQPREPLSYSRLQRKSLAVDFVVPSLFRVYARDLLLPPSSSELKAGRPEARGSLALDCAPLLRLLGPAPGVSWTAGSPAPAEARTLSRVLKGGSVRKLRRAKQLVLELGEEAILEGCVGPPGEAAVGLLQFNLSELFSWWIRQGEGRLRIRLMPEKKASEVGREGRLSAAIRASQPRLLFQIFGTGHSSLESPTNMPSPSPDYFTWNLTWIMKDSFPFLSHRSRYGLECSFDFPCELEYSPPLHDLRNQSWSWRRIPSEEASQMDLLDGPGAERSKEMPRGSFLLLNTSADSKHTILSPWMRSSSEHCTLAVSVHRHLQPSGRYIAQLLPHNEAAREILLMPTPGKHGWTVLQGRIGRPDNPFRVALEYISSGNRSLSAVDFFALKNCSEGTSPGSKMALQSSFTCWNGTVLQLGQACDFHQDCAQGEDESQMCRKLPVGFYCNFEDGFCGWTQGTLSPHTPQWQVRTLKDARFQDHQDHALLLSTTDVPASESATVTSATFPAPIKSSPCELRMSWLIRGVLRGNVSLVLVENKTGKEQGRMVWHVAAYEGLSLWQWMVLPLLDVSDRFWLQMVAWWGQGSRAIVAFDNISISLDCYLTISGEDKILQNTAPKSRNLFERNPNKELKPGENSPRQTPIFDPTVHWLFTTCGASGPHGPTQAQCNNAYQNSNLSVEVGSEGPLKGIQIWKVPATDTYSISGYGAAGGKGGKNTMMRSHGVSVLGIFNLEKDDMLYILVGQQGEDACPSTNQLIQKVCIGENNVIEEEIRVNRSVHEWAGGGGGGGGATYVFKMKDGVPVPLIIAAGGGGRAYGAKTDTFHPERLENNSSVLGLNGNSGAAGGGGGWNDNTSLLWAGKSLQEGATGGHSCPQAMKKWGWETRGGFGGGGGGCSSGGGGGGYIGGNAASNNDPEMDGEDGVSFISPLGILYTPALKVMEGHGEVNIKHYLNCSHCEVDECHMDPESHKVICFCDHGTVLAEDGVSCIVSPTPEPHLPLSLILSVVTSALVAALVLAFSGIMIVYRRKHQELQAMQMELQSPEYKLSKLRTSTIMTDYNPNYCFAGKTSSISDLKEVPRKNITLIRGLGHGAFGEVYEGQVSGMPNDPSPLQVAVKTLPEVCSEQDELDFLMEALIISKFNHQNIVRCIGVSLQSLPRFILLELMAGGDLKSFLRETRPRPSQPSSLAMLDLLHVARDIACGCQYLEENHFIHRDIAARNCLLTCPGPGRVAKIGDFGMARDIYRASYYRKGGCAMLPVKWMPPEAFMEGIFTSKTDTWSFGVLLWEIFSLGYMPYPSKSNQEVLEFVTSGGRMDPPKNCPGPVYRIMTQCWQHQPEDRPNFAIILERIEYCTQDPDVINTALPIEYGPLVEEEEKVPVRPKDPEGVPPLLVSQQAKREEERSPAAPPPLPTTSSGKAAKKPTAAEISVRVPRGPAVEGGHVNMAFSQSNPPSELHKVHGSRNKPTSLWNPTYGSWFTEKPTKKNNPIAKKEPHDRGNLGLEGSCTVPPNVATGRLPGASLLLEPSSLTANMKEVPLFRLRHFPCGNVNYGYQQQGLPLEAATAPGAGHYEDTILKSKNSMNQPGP

[23] = target: Ephrin type-B receptor 1 (Homo sapiens) (UniProt P54762); conditions: Compound concentration 1000.0 nM
[24] = target: Mast/stem cell growth factor receptor Kit (Homo sapiens) (UniProt P10721); conditions: Compound concentration 1000.0 nM
[25] = target: Tyrosine-protein kinase Yes (Homo sapiens) (UniProt P07947); conditions: Compound concentration 1000.0 nM
Tyrosine-protein kinase Yes (Homo sapiens), sequence (P07947 2-543 limits assumed): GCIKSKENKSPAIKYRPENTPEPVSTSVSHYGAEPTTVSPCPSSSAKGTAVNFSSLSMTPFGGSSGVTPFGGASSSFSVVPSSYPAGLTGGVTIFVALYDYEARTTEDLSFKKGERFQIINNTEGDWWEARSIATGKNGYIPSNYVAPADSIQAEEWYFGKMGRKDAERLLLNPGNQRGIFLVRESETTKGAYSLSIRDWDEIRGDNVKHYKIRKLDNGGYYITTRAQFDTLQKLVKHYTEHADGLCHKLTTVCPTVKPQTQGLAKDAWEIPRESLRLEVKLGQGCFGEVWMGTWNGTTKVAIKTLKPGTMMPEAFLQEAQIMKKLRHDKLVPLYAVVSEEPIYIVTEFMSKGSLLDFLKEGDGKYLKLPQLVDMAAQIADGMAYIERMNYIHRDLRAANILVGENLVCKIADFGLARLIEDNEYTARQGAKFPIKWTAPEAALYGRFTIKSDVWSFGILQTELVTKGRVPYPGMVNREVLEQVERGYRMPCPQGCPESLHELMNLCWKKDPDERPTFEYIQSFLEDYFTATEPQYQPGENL

[26] = target: Calcium/calmodulin-dependent protein kinase type IV (Homo sapiens) (UniProt Q16566); conditions: Compound concentration 1000.0 nM
[27] = target: Calcium/calmodulin-dependent protein kinase type 1D (Homo sapiens) (UniProt Q8IU85); conditions: Compound concentration 1000.0 nM
[28] = target: Muscarinic acetylcholine receptor M3 (Homo sapiens) (UniProt P20309); conditions: Compound concentration 10.0 uM
[29] = target: D(4) dopamine receptor (Homo sapiens) (UniProt P21917); conditions: Compound concentration 10.0 uM
[30] = target: Insulin receptor-related protein (Homo sapiens) (UniProt P14616); conditions: Compound concentration 1000.0 nM
[31] = tested on: Tyrosine-protein kinase ABL1 (Homo sapiens), P00519 [F317I]; conditions: Compound concentration 1000.0 nM
[32] = target: Activated CDC42 kinase 1 (Homo sapiens) (UniProt Q07912); conditions: Compound concentration 1000.0 nM
[33] = target: Ribosomal protein S6 kinase alpha-6 (Homo sapiens) (UniProt Q9UK32); conditions: Compound concentration 1000.0 nM
[34] = target: Serine/threonine-protein kinase PLK2 (Homo sapiens) (UniProt Q9NYY3); conditions: Compound concentration 1000.0 nM
Serine/threonine-protein kinase PLK2 (Homo sapiens), sequence (Q9NYY3 whole entry, looked up): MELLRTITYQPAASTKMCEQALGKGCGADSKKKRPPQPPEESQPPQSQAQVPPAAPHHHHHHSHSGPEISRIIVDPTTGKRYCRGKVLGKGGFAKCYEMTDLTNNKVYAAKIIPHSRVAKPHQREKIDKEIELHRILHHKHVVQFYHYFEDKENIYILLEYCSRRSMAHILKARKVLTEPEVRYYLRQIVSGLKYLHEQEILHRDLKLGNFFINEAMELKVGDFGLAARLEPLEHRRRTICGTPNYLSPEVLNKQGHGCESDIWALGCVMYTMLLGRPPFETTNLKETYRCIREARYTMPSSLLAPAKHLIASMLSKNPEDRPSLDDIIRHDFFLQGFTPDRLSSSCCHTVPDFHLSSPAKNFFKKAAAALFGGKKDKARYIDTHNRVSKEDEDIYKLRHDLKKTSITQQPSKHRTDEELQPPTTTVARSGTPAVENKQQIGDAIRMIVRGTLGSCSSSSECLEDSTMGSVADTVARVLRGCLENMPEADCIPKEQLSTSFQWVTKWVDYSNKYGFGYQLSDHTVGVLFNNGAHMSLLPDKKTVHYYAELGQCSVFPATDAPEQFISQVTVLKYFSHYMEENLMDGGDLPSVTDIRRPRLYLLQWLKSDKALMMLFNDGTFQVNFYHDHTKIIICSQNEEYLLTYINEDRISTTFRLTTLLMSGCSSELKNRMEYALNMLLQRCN

[35] = target: Serine/threonine-protein kinase tousled-like 1 (Homo sapiens) (UniProt Q9UKI8); conditions: Compound concentration 1000.0 nM
[36] = target: Membrane-associated tyrosine- and threonine-specific cdc2-inhibitory kinase (Homo sapiens) (UniProt Q99640); conditions: Compound concentration 1000.0 nM
Membrane-associated tyrosine- and threonine-specific cdc2-inhibitory kinase (Homo sapiens), sequence (Q99640 whole entry): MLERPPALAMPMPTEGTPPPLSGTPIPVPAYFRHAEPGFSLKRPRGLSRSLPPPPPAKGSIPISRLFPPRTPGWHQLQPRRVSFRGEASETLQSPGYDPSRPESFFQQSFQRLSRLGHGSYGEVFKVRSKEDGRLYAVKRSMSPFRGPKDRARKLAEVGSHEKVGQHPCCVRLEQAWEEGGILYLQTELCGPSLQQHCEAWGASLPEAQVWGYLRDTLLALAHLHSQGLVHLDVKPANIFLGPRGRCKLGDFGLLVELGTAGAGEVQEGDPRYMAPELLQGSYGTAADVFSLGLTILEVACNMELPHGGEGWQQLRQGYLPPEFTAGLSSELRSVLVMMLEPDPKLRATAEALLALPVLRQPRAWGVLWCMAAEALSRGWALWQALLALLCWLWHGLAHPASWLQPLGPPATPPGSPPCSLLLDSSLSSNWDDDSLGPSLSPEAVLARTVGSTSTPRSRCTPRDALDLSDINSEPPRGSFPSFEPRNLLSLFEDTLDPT

Histamine H3 receptor = Histamine H3 receptor (Homo sapiens, UniProt Q9Y5N1); conditions: Compound concentration 10.0 uM
[37] = target: Protein-tyrosine kinase 2-beta (Homo sapiens) (UniProt Q14289); conditions: Compound concentration 1000.0 nM
[38] = target: Death-associated protein kinase 3 (Homo sapiens) (UniProt O43293); conditions: Compound concentration 1000.0 nM
[39] = target: Phosphatidylinositol 4,5-bisphosphate 3-kinase catalytic subunit alpha isoform (Homo sapiens) (UniProt P42336); conditions: Compound concentration 1000.0 nM
[40] = target: Cyclin-dependent kinase 4 (Homo sapiens) (UniProt P11802); conditions: Compound concentration 1000.0 nM
[41] = target: RAC-alpha serine/threonine-protein kinase (Homo sapiens) (UniProt P31749); conditions: Compound concentration 1000.0 nM
[42] = target: Calcium/calmodulin-dependent protein kinase type 1 (Homo sapiens) (UniProt Q14012); conditions: Compound concentration 1000.0 nM
[43] = tested on: Epidermal growth factor receptor (Homo sapiens), P00533 [L858R,T790M]; conditions: Compound concentration 1000.0 nM
[44] = target: Serine/threonine-protein kinase Chk2 (Homo sapiens) (UniProt O96017); conditions: Compound concentration 1000.0 nM

CC(=O)C1=C(C)N(c2cccc(C(F)(F)F)c2)C(=O)N[C@@H]1c1ccc(C#N)nc1 [BAY-678]
inactive: residual activity [1] 100% | residual activity [2] 95.7% | residual activity [3] 100% | residual activity [4] 100% | residual activity [5] 86.1% | residual activity [6] 100% | residual activity [7] 90% | residual activity [8] 93.4% | residual activity [9] 100% | residual activity [10] 100% | residual activity [11] 100% | residual activity [12] 100% | residual activity [13] 100% | residual activity [14] 80.9% | residual activity [15] 80.8% | residual activity [16] 100% | residual activity [17] 100% | residual activity [18] 92.4% | residual activity [19] 62.4% | residual activity [20] 100% | residual activity [21] 78.3% | residual activity [22] 100% | residual activity [23] 100% | residual activity [24] 83.8% | residual activity [25] 81.1% | residual activity [26] 54.3% | residual activity [27] 79.4% | inhibition [28] 10.4% | inhibition [29] 15.9% | residual activity [30] 99.6% | residual activity [31] 100% | residual activity [32] 78.6% | residual activity [33] 87.7% | residual activity [34] 97.8% | residual activity [35] 85.3% | residual activity [36] 90.6% | inhibition (Histamine H3 receptor) 50% | residual activity [37] 100% | residual activity [38] 83.8% | residual activity [39] 100% | residual activity [40] 79.4% | residual activity [41] 90.4% | residual activity [42] 86.7% | residual activity [43] 100% | residual activity [44] 85.6%
